What is called pIC50 is the IC50 on a negative log10 scale, so that one unit is a factor of ten.

The text below walks through data of ChEMBL document CHEMBL4118254, “1,2-Diphenoxiethane salts as potent antiplasmodial agents” (Bioorg Med Chem Lett, 2018).

pIC50: −log10 of the molar value. Bounds are passed on as bounds.

Assay [1] has as its system Plasmodium falciparum. Briefly: Antiplasmodial activity against Plasmodium falciparum 3D7 infected in human erythrocytes after 72 hrs by SYBR green 1-based fluorimetric assay. The format is functional, organism-based. As to conditions: 3D7, 72 h; call rule not given here.
Assay [2] is described as follows: Inhibition of Plasmodium falciparum choline kinase using [methyl-14C]choline as substrate assessed as reduction in rate of incorporation of 14C from [methyl-14C]choline into phosphocholine preincubated for 5 mins followed by substrate addition measured after 10 mins by liquid scintillation counter.
Assay [3] deals with T1, Choline kinase (Plasmodium falciparum (isolate 3D7), UniProt Q8IM71).
T1 sequence (Q8IM71 whole entry): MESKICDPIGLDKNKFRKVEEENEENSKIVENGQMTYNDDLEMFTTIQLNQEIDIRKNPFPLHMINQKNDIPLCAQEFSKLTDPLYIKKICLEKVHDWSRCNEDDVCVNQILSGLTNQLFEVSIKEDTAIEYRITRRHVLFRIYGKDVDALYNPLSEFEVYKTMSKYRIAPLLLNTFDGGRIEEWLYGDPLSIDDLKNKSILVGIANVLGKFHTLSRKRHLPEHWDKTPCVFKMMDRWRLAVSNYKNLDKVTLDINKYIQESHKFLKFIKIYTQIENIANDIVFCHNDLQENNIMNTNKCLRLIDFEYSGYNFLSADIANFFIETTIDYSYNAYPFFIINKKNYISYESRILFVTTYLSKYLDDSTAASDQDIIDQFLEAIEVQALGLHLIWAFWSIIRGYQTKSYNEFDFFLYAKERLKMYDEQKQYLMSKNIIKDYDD
Briefly: Inhibition of Plasmodium falciparum 3D7 choline kinase expressed in Escherichia coli BL21(DE3) assessed as reduction in phosphocholine formation.

The test system of assay [4] is Plasmodium falciparum. Briefly: Antiplasmodial activity against Plasmodium falciparum Dd2 infected in human erythrocytes after 48 hrs by picogreen-microfluorimetric assay. It counts as functional, organism-based. The conditions noted are these: Dd2, 48 h.
The nature of assay [5]: Inhibition of Plasmodium falciparum choline kinase using [1-14C]ethanolamine as substrate assessed as reduction in rate of incorporation of […] preincubated for 5 mins followed by substrate addition measured after 10 mins by liquid scintillation counter. As to conditions: for pIC50: read-out: IC50.
For assay [6], the target named is Choline kinase alpha (Homo sapiens, UniProt P35790). Briefly: Inhibition of human choline kinase alpha1 using [methyl-14C]choline as substrate assessed as reduction in rate of incorporation of 14C from [methyl-14C]choline into phosphocholine preincubated for 5 mins followed by substrate addition measured after 10 mins by scintillation counting.
Choline kinase alpha, sequence (P35790 whole entry): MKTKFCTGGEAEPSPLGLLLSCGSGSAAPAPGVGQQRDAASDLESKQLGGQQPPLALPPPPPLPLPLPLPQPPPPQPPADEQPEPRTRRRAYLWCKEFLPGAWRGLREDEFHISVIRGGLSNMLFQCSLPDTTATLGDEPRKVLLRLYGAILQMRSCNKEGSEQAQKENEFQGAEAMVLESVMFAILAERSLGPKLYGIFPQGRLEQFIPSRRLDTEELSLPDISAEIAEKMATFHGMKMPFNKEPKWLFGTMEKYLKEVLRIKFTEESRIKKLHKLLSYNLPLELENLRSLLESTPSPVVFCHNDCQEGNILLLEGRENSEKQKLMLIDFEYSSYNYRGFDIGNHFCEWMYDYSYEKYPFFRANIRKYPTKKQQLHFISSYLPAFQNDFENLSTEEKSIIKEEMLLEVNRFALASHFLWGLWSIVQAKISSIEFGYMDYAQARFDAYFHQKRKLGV

Consider `CN(c1ccc(Cl)cc1)c1cc[n+](Cc2ccc(OCCOc3ccc(C[n+]4ccc(N(C)c5ccc(Cl)cc5)c5ccccc54)cc3)cc2)c2ccccc12`, for which the pIC50 is 6.83 in assay [1] and 5.60 in assay [2].
For `C[N+]1(C)CCOC(O)(c2ccc(-c3ccc(C4(O)C[N+](C)(C)CCO4)cc3)cc2)C1` (stereo not given) [HEMICHOLINIUM-3], the pIC50 in assay [3] was 3.60; in assay [4], less than 4.30; in assay [1] it was less than 4.30; in assay [2], 3.60.
`c1cc(OCCOc2ccc(C[N+]34CCC(CC3)CC4)cc2)ccc1C[N+]12CCC(CC1)CC2` showed a pIC50 in assay [1] of 6.75.
With `Clc1ccc2c(N3CCCCCC3)cc[n+](Cc3ccc(OCCOc4ccc(C[n+]5ccc(N6CCCCCC6)c6ccc(Cl)cc65)cc4)cc3)c2c1`, the results for the pIC50 in assay [1], in assay [2] and in assay [5] were 7.46, 4.96 and less than 4.30, respectively.
As for `CN(c1ccccc1)c1cc[n+](Cc2ccc(OCCOc3ccc(C[n+]4ccc(N(C)c5ccccc5)c5ccc(Cl)cc54)cc3)cc2)c2cc(Cl)ccc12`, the pIC50 in assay [1] is 6.75.
`CN(c1ccc(Cl)cc1)c1cc[n+](Cc2ccc(OCCOc3ccc(C[n+]4ccc(N(C)c5ccc(Cl)cc5)c5ccc(Cl)cc54)cc3)cc2)c2cc(Cl)ccc12`: the pIC50 is 6.43 in assay [1] and 5.19 in assay [2].
For the compound `CN(c1ccccc1)c1cc[n+](Cc2ccc(OCCOc3ccc(C[n+]4ccc(N(C)c5ccccc5)c5ccccc54)cc3)cc2)c2ccccc12`, the pIC50 in assay [1] was 6.79.
Regarding `CN(c1ccc(Cl)cc1)c1cc[n+](Cc2ccc(-c3ccc(C[n+]4ccc(N(C)c5ccc(Cl)cc5)c5ccccc54)cc3)cc2)c2ccccc12` [RSM-932A], the pIC50 is 5.76 in assay [3], 7.58 in assay [4], 7.58 in assay [1] and 5.76 in assay [2].
`OC1C[N+]2(Cc3ccc(OCCOc4ccc(C[N+]56CCC(CC5)C(O)C6)cc4)cc3)CCC1CC2` (stereo not given): the pIC50 in assay [1] was 5.77.
As for `c1ccc2c(c1)c(N1CCCCCC1)cc[n+]2Cc1ccc(OCCOc2ccc(C[n+]3ccc(N4CCCCCC4)c4ccccc43)cc2)cc1`, the negative logarithm of the IC50 (pIC50) is 6.85 in assay [1], 5.63 in assay [2] and less than 4.82 in assay [5].
On to `Clc1ccc2c(N3CCCC3)cc[n+](Cc3ccc(OCCOc4ccc(C[n+]5ccc(N6CCCC6)c6ccc(Cl)cc65)cc4)cc3)c2c1`, for which the negative logarithm of the IC50 (pIC50) was 7.23 in assay [1] and 4.85 in assay [2].
As to `CN(C)c1cc[n+](Cc2ccc(CCCCc3ccc(C[n+]4ccc(N(C)C)cc4)cc3)cc2)cc1`, the negative logarithm of the IC50 (pIC50) is 3.97 in assay [3]; 8.46 in assay [4]; 6.11 in assay [6]; 8.46 in assay [1]; 3.97 in assay [2].
In the case of `[Br-].[Br-].c1cc(OCCOc2ccc(C[n+]3ccc(N4CCCC4)cc3)cc2)ccc1C[n+]1ccc(N2CCCC2)cc1`, the pIC50 in assay [1] was 7.80; in assay [2] it was 4.30. The IC50 entry in assay [5] is reported as “Not Active”.
Turning to `CN(C)c1cc[n+](Cc2ccc(OCCOc3ccc(C[n+]4ccc(N(C)C)cc4)cc3)cc2)cc1.[Br-].[Br-]`, the pIC50 in assay [1] was 7.80; in assay [2], not above 4.00. Moreover, the IC50 result in assay [5] is listed as “Not Active”.
With `CN(C)c1cc[n+](Cc2ccc(CCCCc3ccc(C[n+]4ccc(N5CCCC5)cc4)cc3)cc2)cc1`, the negative logarithm of the IC50 (pIC50) was 8.52 in assay [1], 3.99 in assay [2] and 5.22 in assay [5].
`CN(C)c1cc[n+](Cc2ccc(-c3ccc(C[n+]4ccc(N5CCCC5)cc4)cc3)cc2)cc1`: the negative logarithm of the IC50 (pIC50) in assay [2] was 3.56; in assay [5], 4.92.
